{"source": "ChEMBL document CHEMBL1201862", "about": "“PubChem BioAssay data set” (2004)", "key": {"[1]": {"target": "T1, Aminopeptidase N (Plasmodium falciparum FcB1/Columbia, UniProt O96935)", "T1 sequence (O96935 whole entry)": "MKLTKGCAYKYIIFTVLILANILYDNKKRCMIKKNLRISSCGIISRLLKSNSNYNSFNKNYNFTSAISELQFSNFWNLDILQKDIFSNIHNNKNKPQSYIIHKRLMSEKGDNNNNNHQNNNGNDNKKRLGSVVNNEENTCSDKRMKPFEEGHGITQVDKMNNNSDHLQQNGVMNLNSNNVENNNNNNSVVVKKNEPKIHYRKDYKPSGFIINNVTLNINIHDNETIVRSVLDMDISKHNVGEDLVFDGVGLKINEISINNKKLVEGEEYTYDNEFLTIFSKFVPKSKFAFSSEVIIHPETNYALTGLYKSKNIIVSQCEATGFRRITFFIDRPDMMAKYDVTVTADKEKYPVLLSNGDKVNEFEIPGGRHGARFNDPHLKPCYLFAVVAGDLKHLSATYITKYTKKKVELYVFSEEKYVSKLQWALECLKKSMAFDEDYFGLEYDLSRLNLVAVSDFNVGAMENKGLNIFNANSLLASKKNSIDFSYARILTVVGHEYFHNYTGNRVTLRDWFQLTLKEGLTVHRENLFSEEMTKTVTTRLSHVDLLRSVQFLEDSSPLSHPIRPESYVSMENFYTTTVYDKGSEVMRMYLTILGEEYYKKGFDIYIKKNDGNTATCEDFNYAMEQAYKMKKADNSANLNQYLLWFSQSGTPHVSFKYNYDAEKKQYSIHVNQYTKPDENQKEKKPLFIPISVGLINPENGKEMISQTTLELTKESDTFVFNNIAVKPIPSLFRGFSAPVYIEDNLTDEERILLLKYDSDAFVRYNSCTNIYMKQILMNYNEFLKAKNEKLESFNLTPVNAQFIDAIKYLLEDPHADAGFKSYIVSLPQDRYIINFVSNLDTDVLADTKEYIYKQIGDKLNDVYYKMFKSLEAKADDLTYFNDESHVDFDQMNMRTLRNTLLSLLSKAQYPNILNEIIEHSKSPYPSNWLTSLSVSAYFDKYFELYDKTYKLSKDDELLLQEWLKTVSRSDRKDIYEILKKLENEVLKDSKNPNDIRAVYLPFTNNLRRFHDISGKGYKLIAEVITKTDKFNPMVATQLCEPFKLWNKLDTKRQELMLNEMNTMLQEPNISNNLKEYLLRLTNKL", "test": "malaria alanyl aminopeptidase activity blockers – biochemical, fluorogenic H-Leu-NHMec substrate, 1536-well (AID 1445)", "set-up": "species or system Plasmodium falciparum 3D7, 3D7"}, "[2]": {"system": "H4", "test": "Luminescence Cell-Based Dose Response HTS to Identify Activators of 5'UTR Stem-Loop Driven Prion Protein mRNA Translation in H4 Neuroglioblastoma Cells. [Related pubchem assays: 1829 (Project Summary), 1814 (Primary HTS)]", "format": "functional", "settings": "Homo sapiens"}, "[3]": {"target": "T2, Zinc finger protein mex-5 (Caenorhabditis elegans, UniProt Q9XUB2)", "T2 sequence (Q9XUB2 whole entry)": "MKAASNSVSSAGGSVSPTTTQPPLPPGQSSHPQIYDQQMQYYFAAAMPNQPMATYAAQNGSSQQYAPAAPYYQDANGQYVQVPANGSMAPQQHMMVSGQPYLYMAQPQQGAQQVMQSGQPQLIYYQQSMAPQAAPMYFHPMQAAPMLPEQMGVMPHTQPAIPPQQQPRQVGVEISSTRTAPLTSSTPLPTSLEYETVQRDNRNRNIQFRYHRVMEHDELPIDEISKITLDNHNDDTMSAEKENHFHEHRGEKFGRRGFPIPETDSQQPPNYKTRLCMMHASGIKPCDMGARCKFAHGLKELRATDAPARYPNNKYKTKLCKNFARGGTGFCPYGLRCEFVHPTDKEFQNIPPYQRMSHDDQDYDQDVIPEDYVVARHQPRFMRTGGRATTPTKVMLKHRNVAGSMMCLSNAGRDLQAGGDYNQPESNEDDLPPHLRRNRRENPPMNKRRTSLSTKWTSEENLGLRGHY", "test": "potency of MEX-5 RNA-binding blockers – biochemical, C. elegans, fluorescence polarization, dose response (AID 1960)"}, "[4]": {"test": "Luminescence Cell-Based Dose Confirmation HTS to Identify Activators of 5'UTR Stem-Loop Driven Alpha-Synuclein mRNA Translation in H4 Neuroglioblastoma Cells. [Related pubchem assays: 1829 (Project Summary), 1814 (Primary HTS)]", "format": "functional"}, "[5]": {"test": "Luminescence Cell-Based Dose Response HTS to Identify Activators of Luciferase Translation or Activity in H4 […] Cells. [Related pubchem assays: 1829 (Project Summary), 1814 (Primary HTS)]", "format": "functional"}, "[6]": {"target": "T3, Endoribonuclease toxin MazF (Escherichia coli K-12, UniProt P0AE70)", "T3 sequence (P0AE70 whole entry)": "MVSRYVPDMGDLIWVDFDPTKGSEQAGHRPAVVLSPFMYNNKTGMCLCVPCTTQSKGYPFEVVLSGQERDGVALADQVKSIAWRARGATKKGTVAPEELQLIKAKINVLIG", "test": "activation of MazEF endoribonuclease cleavage – biochemical, fluorescence, single-stranded RNA substrate, uHTS hits, dose response (AID 588481)", "format": "functional"}, "[7]": {"target": "T3, Endoribonuclease toxin MazF", "test": "substrate-only fluorescence increase artefacts – biochemical, single-stranded RNase substrate, counter-screen for MazEF activator project, dose response (AID 588502)", "format": "functional"}, "[8]": {"target": "T4, RNA-binding protein pos-1 (Caenorhabditis elegans, UniProt G5EF15)", "T4 sequence (G5EF15 whole entry)": "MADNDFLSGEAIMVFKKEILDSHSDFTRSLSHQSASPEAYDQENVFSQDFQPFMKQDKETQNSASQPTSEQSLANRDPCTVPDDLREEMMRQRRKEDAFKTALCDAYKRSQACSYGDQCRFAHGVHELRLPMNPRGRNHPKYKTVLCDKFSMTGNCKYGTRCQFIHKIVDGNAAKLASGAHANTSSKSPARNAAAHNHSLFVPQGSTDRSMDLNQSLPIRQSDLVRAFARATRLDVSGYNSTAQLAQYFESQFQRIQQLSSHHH", "test": "disruptors of C. elegans POS-1 RNA interaction – biochemical, fluorescence polarization, dose response (AID 1964);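 also: purified POS-1 fused to maltose binding protein made in E. coli; potency of compounds blocking POS-1 binding to fluorescent RNA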"}, "[9]": {"test": "THP-1 cell cytotoxicity, dose response, cytotoxicity control for non-replicating M. tuberculosis project (AID 489025)", "format": "functional"}, "[10]": {"test": "HepG2 cell cytotoxicity, dose response, cytotoxicity control for non-replicating M. tuberculosis project (AID 489018)", "format": "functional", "settings": "Mycobacterium tuberculosis"}, "[11]": {"test": "microbe, parasite or virus in culture", "format": "functional", "settings": "Mycobacterium tuberculosis"}, "[12]": {"test": "cells", "format": "functional"}, "[13]": {"target": "Voltage-dependent T-type calcium channel subunit alpha-1H (Homo sapiens, UniProt O95180)", "sequence (O95180 whole entry)": "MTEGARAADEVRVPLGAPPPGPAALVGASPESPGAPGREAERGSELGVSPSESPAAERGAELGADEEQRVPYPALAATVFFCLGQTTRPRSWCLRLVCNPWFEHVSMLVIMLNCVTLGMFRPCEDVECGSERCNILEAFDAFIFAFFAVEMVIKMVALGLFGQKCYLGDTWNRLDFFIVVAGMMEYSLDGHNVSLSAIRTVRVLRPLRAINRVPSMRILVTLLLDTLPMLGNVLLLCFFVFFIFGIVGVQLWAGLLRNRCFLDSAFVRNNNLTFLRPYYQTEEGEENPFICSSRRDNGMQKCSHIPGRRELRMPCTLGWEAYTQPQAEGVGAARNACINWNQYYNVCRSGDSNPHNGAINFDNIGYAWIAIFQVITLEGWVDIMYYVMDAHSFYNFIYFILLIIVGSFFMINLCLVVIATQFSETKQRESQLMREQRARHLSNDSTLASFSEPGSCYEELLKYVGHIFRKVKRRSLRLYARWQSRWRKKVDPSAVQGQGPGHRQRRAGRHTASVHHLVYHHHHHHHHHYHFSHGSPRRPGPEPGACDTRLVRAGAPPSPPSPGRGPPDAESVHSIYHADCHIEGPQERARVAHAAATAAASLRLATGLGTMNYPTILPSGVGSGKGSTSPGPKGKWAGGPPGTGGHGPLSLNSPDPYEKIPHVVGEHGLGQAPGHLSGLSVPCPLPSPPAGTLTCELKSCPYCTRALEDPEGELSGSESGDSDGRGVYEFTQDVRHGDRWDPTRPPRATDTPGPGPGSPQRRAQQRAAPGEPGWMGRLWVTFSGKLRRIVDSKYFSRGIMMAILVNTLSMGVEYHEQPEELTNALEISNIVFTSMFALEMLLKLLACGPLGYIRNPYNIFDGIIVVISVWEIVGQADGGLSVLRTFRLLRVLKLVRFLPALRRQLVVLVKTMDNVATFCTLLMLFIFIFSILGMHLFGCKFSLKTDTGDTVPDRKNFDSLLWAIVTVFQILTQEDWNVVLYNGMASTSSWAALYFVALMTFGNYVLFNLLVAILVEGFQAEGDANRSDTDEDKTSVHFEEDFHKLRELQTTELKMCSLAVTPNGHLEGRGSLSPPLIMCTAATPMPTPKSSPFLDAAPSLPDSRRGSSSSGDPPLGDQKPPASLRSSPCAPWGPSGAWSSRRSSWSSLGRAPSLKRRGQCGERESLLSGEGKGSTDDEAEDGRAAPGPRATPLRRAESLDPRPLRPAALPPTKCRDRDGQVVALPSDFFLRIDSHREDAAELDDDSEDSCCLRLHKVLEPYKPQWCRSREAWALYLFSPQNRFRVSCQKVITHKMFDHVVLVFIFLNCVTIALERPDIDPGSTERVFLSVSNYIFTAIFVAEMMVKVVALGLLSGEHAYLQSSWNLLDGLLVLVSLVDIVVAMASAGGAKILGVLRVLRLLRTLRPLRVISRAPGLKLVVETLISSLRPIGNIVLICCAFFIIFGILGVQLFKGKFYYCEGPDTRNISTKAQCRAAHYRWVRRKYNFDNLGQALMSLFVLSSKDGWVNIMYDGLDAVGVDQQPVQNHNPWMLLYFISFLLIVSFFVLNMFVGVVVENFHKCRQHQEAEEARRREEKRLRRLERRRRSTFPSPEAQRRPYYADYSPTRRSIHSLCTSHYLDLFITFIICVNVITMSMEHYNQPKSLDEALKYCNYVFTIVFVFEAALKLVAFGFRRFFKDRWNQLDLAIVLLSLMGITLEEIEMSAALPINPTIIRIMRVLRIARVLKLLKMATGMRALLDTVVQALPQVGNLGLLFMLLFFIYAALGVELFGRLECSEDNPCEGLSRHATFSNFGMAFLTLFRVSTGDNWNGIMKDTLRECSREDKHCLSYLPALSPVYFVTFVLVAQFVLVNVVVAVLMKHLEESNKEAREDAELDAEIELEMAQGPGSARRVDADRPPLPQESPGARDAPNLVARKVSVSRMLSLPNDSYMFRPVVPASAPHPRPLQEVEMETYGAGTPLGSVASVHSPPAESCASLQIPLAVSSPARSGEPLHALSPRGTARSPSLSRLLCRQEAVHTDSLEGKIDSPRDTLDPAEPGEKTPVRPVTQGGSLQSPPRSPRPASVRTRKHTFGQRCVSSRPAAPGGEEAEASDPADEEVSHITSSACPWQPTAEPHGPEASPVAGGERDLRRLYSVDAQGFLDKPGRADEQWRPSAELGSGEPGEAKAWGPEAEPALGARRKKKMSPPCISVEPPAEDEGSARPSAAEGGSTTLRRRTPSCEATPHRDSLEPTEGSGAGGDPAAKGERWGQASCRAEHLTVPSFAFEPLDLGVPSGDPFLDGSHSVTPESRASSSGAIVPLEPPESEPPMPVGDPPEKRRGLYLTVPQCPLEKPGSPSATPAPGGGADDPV", "format": "functional"}, "[14]": {"test": "cells", "format": "functional, cell-based"}, "[15]": {"test": "fluconazole-exposed Candida albicans growth modulators – fluorescence, retest, confirmation (AID 2467)", "format": "functional, cell-based"}, "[16]": {"test": "A Cell Based Secondary Assay To Explore Cytotoxicity of Compounds that Sensitize Mycobacterium Tuberculosis to Beta-Lactam Antibiotics.", "format": "functional"}, "[17]": {"target": "T5, Microphthalmia-associated transcription factor (Homo sapiens, UniProt O75030)", "T5 sequence (O75030 whole entry)": "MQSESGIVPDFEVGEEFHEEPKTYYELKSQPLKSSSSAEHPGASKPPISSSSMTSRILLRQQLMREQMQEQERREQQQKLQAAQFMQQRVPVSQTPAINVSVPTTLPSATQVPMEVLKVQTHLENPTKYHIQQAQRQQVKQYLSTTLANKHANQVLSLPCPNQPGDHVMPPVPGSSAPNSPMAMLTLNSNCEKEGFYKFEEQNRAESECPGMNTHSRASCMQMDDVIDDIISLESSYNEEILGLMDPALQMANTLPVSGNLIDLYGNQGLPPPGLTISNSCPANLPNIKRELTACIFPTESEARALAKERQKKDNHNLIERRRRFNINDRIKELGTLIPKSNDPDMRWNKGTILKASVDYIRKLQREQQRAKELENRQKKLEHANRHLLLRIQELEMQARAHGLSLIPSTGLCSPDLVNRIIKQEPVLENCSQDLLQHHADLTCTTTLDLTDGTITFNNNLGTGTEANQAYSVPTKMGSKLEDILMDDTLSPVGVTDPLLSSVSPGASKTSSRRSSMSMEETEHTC", "test": "reducers of TRPM1 reporter luminescence, concentration series – cell-based, SK-MEL-5, cherry-picked, set 3, MITF inhibitor project, dose response (AID 493073)", "format": "functional"}, "[18]": {"test": "cells", "format": "functional, cell-based", "remark": "listed apart in the source"}, "[19]": {"test": "NIH-3T3 fibroblast cytotoxicity, dose response, cytotoxicity control, cell-based, fluorescence, Alamar Blue, secondary assay (AID 2327);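 also: NIH-3T3 mouse fibroblasts cultured with fluconazole at 8 µg/mL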", "format": "functional"}}, "note": "The source made the active and inactive calls.", "data": [{"smiles": "O=C(Cn1nnc2ccccc2c1=O)N[C@@H](Cc1c[nH]c2ccccc12)C(=O)O", "values": [{"measurement": "IC50", "setting": "[1]", "value": "71.6 µM (active)"}]}, {"smiles": "Cc1ccc(CSc2nnc(SCC(=O)N/N=C/c3ccccc3OCC(=O)O)s2)cc1", "values": [{"measurement": "IC50", "setting": "[1]", "value": "30.6 µM (active)"}]}, {"smiles": "CCN1C(=O)/C(=C2/C=Cc3ccccc3N2C)OC1=S", "values": [{"measurement": "EC50", "setting": "[2]", "value": "39.4 µM (active)"}, {"measurement": "EC50", "setting": "[3]", "value": "3.94 µM (inconclusive)"}, {"measurement": "EC50", "setting": "[4]", "value": "2.39 µM (active)"}, {"measurement": "EC50", "setting": "[5]", "value": "4.49 µM (active)"}, {"measurement": "EC50", "setting": "[6]", "value": "> 99 µM (inactive)"}, {"measurement": "EC50", "setting": "[7]", "value": "> 99 µM (inactive)"}, {"measurement": "EC50", "setting": "[8]", "value": "55.8 µM (active)"}]}, {"smiles": "O=C(NCC1CCN(c2ccc(S(=O)(=O)N3CCOCC3)cc2)CC1)c1ccc(Cl)cc1", "values": [{"measurement": "CC50", "setting": "[9]", "value": "> 40 µM (active)"}, {"measurement": "CC50", "setting": "[10]", "value": "> 20 µM (active)"}, {"measurement": "CC50", "setting": "[11]", "value": "> 40 µM (active)"}, {"measurement": "IC50", "setting": "[12]", "value": "31.3 µM (active)"}, {"measurement": "EC50", "setting": "[13]", "value": "21.2 µM (active)"}]}, {"smiles": "Nc1nonc1C(=O)N/N=C/c1ccc(-c2ccc(Cl)c(C(=O)O)c2)o1", "values": [{"measurement": "IC50", "setting": "[1]", "value": "43.8 µM (active)"}]}, {"smiles": "CC1CCN(S(=O)(=O)c2ccc(NC(=O)Cc3ccccc3)cc2)CC1", "values": [{"measurement": "EC50", "setting": "[13]", "value": "5.25 µM (active)"}]}, {"smiles": "O=C(CSCC(=O)Nc1ccccc1)N/N=C/c1c(O)ccc2ccccc12", "values": [{"measurement": "EC50", "setting": "[14]", "value": "9.25 µM (active)"}, {"measurement": "EC50", "setting": "[15]", "value": "> 38 µM (not active)"}, {"measurement": "CC50", "setting": "[16]", "value": "6.22 µM (active)"}, {"measurement": "AC50", "setting": "[17]", "value": "3.34 µM (active)"}, {"measurement": "EC50", "setting": "[18]", "value": "> 350 µM (not active)"}, {"measurement": "EC50", "setting": "[6]", "value": "> 99 µM (inactive)"}, {"measurement": "EC50", "setting": "[7]", "value": "> 99 µM (inactive)"}, {"measurement": "EC50", "setting": "[19]", "value": "> 160 µM (inactive)"}]}, {"smiles": "COc1ccccc1OCc1nc(Cc2ccc(Cl)cc2)no1", "values": [{"measurement": "EC50", "setting": "[13]", "value": "7.9 µM (active)"}]}, {"smiles": "CCc1nnc(NS(=O)(=O)c2ccc(NC(=S)NC(=O)c3ccc(OC)cc3)cc2)s1", "values": [{"measurement": "IC50", "setting": "[1]", "value": "60.5 µM (active)"}]}]}
